Data published in ChEMBL document CHEMBL3885861, “Open TG-GATES”.

Species: Rattus norvegicus
Assay: Open TG-GATES - Regimen: Daily Repeat
Format: toxicity, organism-based, Sprague-Dawley
Parameters: regimen Daily Repeat, gender Male, age 6 weeks
Conditions: in vivo, po, 25 mg/kg, route gavage, dose level Low; for APTT / Bas / Eos / Fbg / Hb / Ht / Lym / MCH / MCHC / MCV / Mono / Neu / PT / Plat / RBC / Ret / WBC: tissue Blood; for KIDNEY_L / KIDNEY_R / KIDNEY_TOTAL: tissue Kidney; for LIVER: tissue Liver; for A/G / ALP / ALT / AST / BUN / CRE / Ca / Cl / DBIL / GLC / IP / K / LDH / Na / PL / RALB / TBIL / TC / TG / TP / gamma-GTP: tissue Plasma

SMILES: CCSCC[C@H](N)C(=O)O [ETHIONINE]
- TERMINAL_BW (72 h, time 3 day): 235.6 g
- APTT (72 h, time 3 day): 22.5 s
- Bas (72 h, time 3 day): 0%
- Eos (72 h, time 3 day): 1%
- Fbg (72 h, time 3 day): 213.8 mg/dL
- Hb (72 h, time 3 day): 13.1 g/dL
- Ht (72 h, time 3 day): 39.1%
- Lym (72 h, time 3 day): 76.6%
- MCH (72 h, time 3 day): 20.8 pg
- MCHC (72 h, time 3 day): 33.6%
- MCV (72 h, time 3 day): 61.9 fL
- Mono (72 h, time 3 day): 2.8%
- Neu (72 h, time 3 day): 18.8%
- PT (72 h, time 3 day): 13.5 s
- Plat (72 h, time 3 day): 126.1 x10_4/uL
- RBC (72 h, time 3 day): 631.2 x10_4/ul
- Ret (72 h, time 3 day): 6.4%
- WBC (72 h, time 3 day): 124.8 x10_2/uL
- KIDNEY_L (72 h, time 3 day): 1 g
- KIDNEY_R (72 h, time 3 day): 1 g
- KIDNEY_TOTAL (72 h, time 3 day): 2.1 g
- LIVER (72 h, time 3 day): 11 g
- A/G (72 h, time 3 day): 1.6
- ALP (72 h, time 3 day): 1017.8 IU/L
- ALT (72 h, time 3 day): 39.2 IU/L
- AST (72 h, time 3 day): 68.2 IU/L
- BUN (72 h, time 3 day): 14.4 mg/dL
- CRE (72 h, time 3 day): 0.4 mg/dL
- Ca (72 h, time 3 day): 10.6 mg/dL
- Cl (72 h, time 3 day): 100.2 meq/L
- DBIL (72 h, time 3 day): 0.08 mg/dL
- GLC (72 h, time 3 day): 203.4 mg/dL
- IP (72 h, time 3 day): 8.7 mg/dL
- K (72 h, time 3 day): 4 meq/L
- LDH (72 h, time 3 day): 174.4 IU/L
- Na (72 h, time 3 day): 139.6 meq/L
- PL (72 h, time 3 day): 129.6 mg/dL
- RALB (72 h, time 3 day): 3.5 g/dL
- TBIL (72 h, time 3 day): 0.1 mg/dL
- TC (72 h, time 3 day): 56.6 mg/dL
- TG (72 h, time 3 day): 97 mg/dL
- TP (72 h, time 3 day): 5.7 g/dL
- gamma-GTP (72 h, time 3 day): 1.2 IU/L
- TERMINAL_BW ([…], time 7 day): 268.3 g
- TERMINAL_BW ([…], time 14 day): 312.6 g
- TERMINAL_BW ([…], time 28 day): 389.5 g
- APTT ([…], time 7 day): 22.7 s
- Bas ([…], time 7 day): 0%
- Eos ([…], time 7 day): 1%
- Fbg ([…], time 7 day): 206.4 mg/dL
- Hb ([…], time 7 day): 13.7 g/dL
- Ht ([…], time 7 day): 40.1%
- Lym ([…], time 7 day): 81.8%
- MCH ([…], time 7 day): 20.8 pg
- MCHC ([…], time 7 day): 34.2%
- MCV ([…], time 7 day): 60.8 fL
- Mono ([…], time 7 day): 2.2%
- Neu ([…], time 7 day): 14.8%
- PT ([…], time 7 day): 13.3 s
- Plat ([…], time 7 day): 121.3 x10_4/uL
- RBC ([…], time 7 day): 660 x10_4/ul
- Ret ([…], time 7 day): 5.6%
- WBC ([…], time 7 day): 94 x10_2/uL
- APTT ([…], time 14 day): 22.1 s
- Bas ([…], time 14 day): 0%
- Eos ([…], time 14 day): 0.8%
- Fbg ([…], time 14 day): 192.2 mg/dL
- Hb ([…], time 14 day): 14.3 g/dL
- Ht ([…], time 14 day): 41.5%
- Lym ([…], time 14 day): 79.6%
- MCH ([…], time 14 day): 20.8 pg
- MCHC ([…], time 14 day): 34.6%
- MCV ([…], time 14 day): 60.2 fL
- Mono ([…], time 14 day): 2.2%
- Neu ([…], time 14 day): 16.4%
- PT ([…], time 14 day): 13.8 s
- Plat ([…], time 14 day): 125.2 x10_4/uL
- RBC ([…], time 14 day): 689 x10_4/ul
- Ret ([…], time 14 day): 3.8%
- WBC ([…], time 14 day): 109.7 x10_2/uL
- APTT ([…], time 28 day): 24.9 s
- Bas ([…], time 28 day): 0%
- Eos ([…], time 28 day): 1.2%
- Fbg ([…], time 28 day): 184.4 mg/dL
- Hb ([…], time 28 day): 15.3 g/dL
- Ht ([…], time 28 day): 44%
- Lym ([…], time 28 day): 80%
- MCH ([…], time 28 day): 19.7 pg
- MCHC ([…], time 28 day): 34.7%
- MCV ([…], time 28 day): 56.6 fL
- Mono ([…], time 28 day): 2%
- Neu ([…], time 28 day): 15.8%
- PT ([…], time 28 day): 14 s
- Plat ([…], time 28 day): 114 x10_4/uL
- RBC ([…], time 28 day): 779.4 x10_4/ul
- Ret ([…], time 28 day): 1.9%
- WBC ([…], time 28 day): 137.8 x10_2/uL
- KIDNEY_L ([…], time 7 day): 1.1 g
- KIDNEY_R ([…], time 7 day): 1.1 g
- KIDNEY_TOTAL ([…], time 7 day): 2.2 g
- KIDNEY_L ([…], time 14 day): 1.3 g
- KIDNEY_R ([…], time 14 day): 1.2 g
- KIDNEY_TOTAL ([…], time 14 day): 2.5 g
- KIDNEY_L ([…], time 28 day): 1.4 g
- KIDNEY_R ([…], time 28 day): 1.4 g
- KIDNEY_TOTAL ([…], time 28 day): 2.8 g
- LIVER ([…], time 7 day): 12.3 g
- LIVER ([…], time 14 day): 13.8 g
- LIVER ([…], time 28 day): 17.2 g
- A/G ([…], time 7 day): 1.7
- ALP ([…], time 7 day): 1036.6 IU/L
- ALT ([…], time 7 day): 32.8 IU/L
- AST ([…], time 7 day): 61.2 IU/L
- BUN ([…], time 7 day): 15.2 mg/dL
- CRE ([…], time 7 day): 0.4 mg/dL
- Ca ([…], time 7 day): 10.5 mg/dL
- Cl ([…], time 7 day): 103.2 meq/L
- DBIL ([…], time 7 day): 0.086 mg/dL
- GLC ([…], time 7 day): 195.8 mg/dL
- IP ([…], time 7 day): 7.9 mg/dL
- K ([…], time 7 day): 3.8 meq/L
- LDH ([…], time 7 day): 205.8 IU/L
- Na ([…], time 7 day): 141.6 meq/L
- PL ([…], time 7 day): 143 mg/dL
- RALB ([…], time 7 day): 3.7 g/dL
- TBIL ([…], time 7 day): 0.1 mg/dL
- TC ([…], time 7 day): 61 mg/dL
- TG ([…], time 7 day): 141.4 mg/dL
- TP ([…], time 7 day): 5.9 g/dL
- gamma-GTP ([…], time 7 day): 1 IU/L
- A/G ([…], time 14 day): 1.7
- ALP ([…], time 14 day): 768.4 IU/L
- ALT ([…], time 14 day): 28.6 IU/L
- AST ([…], time 14 day): 56.2 IU/L
- BUN ([…], time 14 day): 16.8 mg/dL
- CRE ([…], time 14 day): 0.5 mg/dL
- Ca ([…], time 14 day): 10.3 mg/dL
- Cl ([…], time 14 day): 101.8 meq/L
- DBIL ([…], time 14 day): 0.09 mg/dL
- GLC ([…], time 14 day): 215.4 mg/dL
- IP ([…], time 14 day): 7.2 mg/dL
- K ([…], time 14 day): 3.7 meq/L
- LDH ([…], time 14 day): 202.4 IU/L
- Na ([…], time 14 day): 140.8 meq/L
- PL ([…], time 14 day): 126.8 mg/dL
- RALB ([…], time 14 day): 3.6 g/dL
- TBIL ([…], time 14 day): 0.1 mg/dL
- TC ([…], time 14 day): 49.6 mg/dL
- TG ([…], time 14 day): 134 mg/dL
- TP ([…], time 14 day): 5.9 g/dL
- gamma-GTP ([…], time 14 day): 0.8 IU/L
- A/G ([…], time 28 day): 1.6
- ALP ([…], time 28 day): 588.2 IU/L
- ALT ([…], time 28 day): 34.4 IU/L
- AST ([…], time 28 day): 61.6 IU/L
- BUN ([…], time 28 day): 18.6 mg/dL
- CRE ([…], time 28 day): 0.5 mg/dL
- Ca ([…], time 28 day): 10.4 mg/dL
- Cl ([…], time 28 day): 103.4 meq/L
- DBIL ([…], time 28 day): 0.1 mg/dL
- GLC ([…], time 28 day): 221.8 mg/dL
- IP ([…], time 28 day): 6.7 mg/dL
- K ([…], time 28 day): 3.5 meq/L
- LDH ([…], time 28 day): 209 IU/L
- Na ([…], time 28 day): 142.4 meq/L
- PL ([…], time 28 day): 124.2 mg/dL
- RALB ([…], time 28 day): 3.8 g/dL
- TBIL ([…], time 28 day): 0.2 mg/dL
- TC ([…], time 28 day): 48.6 mg/dL
- TG ([…], time 28 day): 144.8 mg/dL
- TP ([…], time 28 day): 6.2 g/dL
- gamma-GTP ([…], time 28 day): 1 IU/L
